Measured values from patent US5885786A, “Methods for screening of substances for inhibition of multidrug resistance” (priority 1996, dated 1999).
pIC50: −log10 of the molar value.

How the values were obtained:
[1] = tested on: glycosylceramide formation in MCF-7-AdrR cells; assay: Inhibition of [3H]glycosylceramide formation in MCF-7-AdrR cells (TLC, liquid scintillation); assay type: cell-based; conditions: for inhibition of glycosylceramide synthesis (in words): MCF-7-AdrR cells
Protocol: FIG. 9. […] Values represent the mean of determinations from three separate experiments, and are calculated as the percent glycosylceramide in the total lipid tritium extract.
FIG. 11A and FIG. 11B. […] FIG. 11: A Autoradiography. […] For autoradiography equal aliquots by volume of total lipid extract were applied to TLC plates. […] [^3 H]Glycosylceramide, visualized in panel A, was quantitated as described in the legend to FIG. 9. Each value represents mean±SEM of determinations from three separate experiments.
FIG. 12. […] [^3 H]Glycosylceramide was quantitated as described in the legend to FIG. 9. Results represents the mean±SEM of determinations from three separate experiments.
MCF-7 cells, grown in medium containing 10% FBS, were switched to media containing 5% FBS. Cell lipids were radiolabeled by adding [^3 H]serine (2.0 μCi/ml), [^3 H]palmitic acid (1.0 μCi/ml), or [^3 H]galactose (1.0 μCi/ml) to the culture medium for the indicated times. Other radiolabels can be substituted. Cells were then rinsed twice with PBS, pH 7.4, and 2 ml of ice-cold methanol containing 2% acetic acid was added. The cells were scraped free, transferred to glass test tubes (13×100 mm), and lipids were extracted by the addition of chloroform (2 ml) followed by water (2 ml). The resulting organic lower phase was withdrawn and evaporated under a stream of nitrogen. Lipids were resuspended in 100 μL of chloroform/methanol (1:1, v/v), and aliquots were applied to TLC plates.
Lipid analysis was carried out by TLC using solvent system I: chloroform/methanol/ammonium hydroxide (40:10:1, v/v) for glycosylceramide separation, solvent system II: chloroform/methanol/water (60:40:8, v/v) for sphingoglycolipid separation, or solvent system III: chloroform/methanol/acetic acid/water (50:30:7:3, v/v) for sphingomyelin separation. For determination of ceramides, an aliquot of the chloroform-soluble lipids was base-hydrolyzed in 0.1N KOH in methanol for 1 h at 37° C., lipids were re-extracted, and separated by TLC using solvent system IV: hexane/diethyl ether/formic acid (60:40:1, v/v).
Radiochromatograms were sprayed with EN^3 HANCE, and exposed for 3-7 days for autofluorgraphy. TLC areas, aligned with bands on the autoradiographs or with iodine-stained commercial lipid standards, were scraped from the plate. Water (0.5 ml) was added to the plate scrapings followed by 4.5 ml of EcoLume counting fluid, and the samples were quantitated by liquid scintillation spectrometry.

P-glycoprotein = conditions: literature; cited from earlier work
acid sphingomyelinase = conditions: literature; cited from earlier work

CC/C(=C(\c1ccccc1)c1ccc(OCCN(C)C)cc1)c1ccccc1 [tamoxifen]
inhibition at 5 µM ([1]; 5.0 μM drug, 24 h, MCF-7-AdrR, FIG. 11B, read-out: inhibition of glycosylceramide formation (cpm tritium)): 65% | pIC50 ([1]; 24 h incubation with [3H]palmitic acid, FIG. 12, read-out: half-maximal inhibition (IC50) of cellular [3H]glycosylceramide formation): 6.00 | maximal inhibitory effect on glycosylceramide formation (in words) ([1]; FIG. 12): highest maximal effect | inhibition of glycosylceramide synthesis (in words) [1]: strongly inhibited | inhibition of glycosylceramide synthesis (in words) ([1]; listed as Tamoxifen): drastically inhibit | binding to P-glycoprotein (in words) (P-glycoprotein): direct binding to P-glycoprotein | inhibition of acid sphingomyelinase (in words) (acid sphingomyelinase): inhibition of acid sphingomyelinase activity
